Assay results reported in patent US20260176285A1, “SALT OF DIOXANE QUINOLINE COMPOUND, CRYSTAL FORM THEREOF, PREPARATION METHODS THEREFOR AND USES THEREOF” (Beijing Scitech-MQ Pharmaceuticals Limited, priority 2022, published 2026).

Key:
[1] = Solid-state stability evaluation (XRPD, HPLC); type: physicochemical; settings: listed as Phosphate salt crystal form A-V
Protocol: The following 6 test samples were placed under 25° C./60% RH and 40° C./75% RH conditions for 1 week, and then the physical and chemical stability of the samples was tested by XRPD and HPLC.
At the same time, after the p-toluenesulfonate salt crystal form A-II and crystal form B-III solids were placed at 80° C. for 24 hours, the physical and chemical stability of the samples were tested by XRPD and HPLC.

[2] = system: human lung cancer cells EBC-1; assay: Efficacy in nude mouse tumor-bearing model of human lung cancer cells EBC-1; type: in vivo, Balb/c nude mouse
How it was run: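 Female BALB/c nude mice bearing subcutaneous EBC-1 xenografts (5×10^6 cells; 150-200 mm^3 at start), 6/group, dosed orally once daily for about 3 weeks at 15 and 7.5 mg/kg (free-base equivalent) in 0.1% CMC-Na. Tumors measured twice weekly; T/C (%) from relative tumor volume versus vehicle.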

[3] = Dynamic solubility in water, SGF, FaSSIF and FeSSIF; type: physicochemical; set-up: S (dynamic solubility): unit not given here; settings: listed as Phosphate salt crystal form A-V; for S (dynamic solubility): 37° C., feed 10 mg/mL
How it was run: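 Free form and salt crystal forms tested over time in water, SGF (pH 1.8), FaSSIF (pH 6.5) and FeSSIF (pH 5.0), simulated fluids made with SIF powder. At each time point samples were centrifuged, passed through 0.45 μm PTFE, and filtrate concentration (HPLC) and pH measured.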

[4] = Hygroscopicity by dynamic moisture sorption (DVS); type: physicochemical; settings: DVS, listed as Phosphate salt crystal form A-V
How it was run: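 Mass change of salt and free-form crystal samples recorded at 25° C over a 0% RH-95% RH-0% RH cycle. Steps were 10% RH (last step 5%) with a dm/dt equilibrium criterion of 0.002%/min.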

In the case of O=C(Nc1ccc(F)cc1)C1(C(=O)Nc2ccc(Oc3ccnc4cc(OCCCN5CCOCC5)c5c(c34)OCCO5)c(F)c2)CC1 [Example 5, N-(3-fluoro-4-((5-(3-morpholinopropoxy)-2,3-dihydro-[1,4]dioxano[2,3-f]quinolin-10-yl)oxy)phenyl)-N-(4-fluorophenyl)cyclopropane-1,1-dicarboxamide], the Purity ([1]; 25° C./60% RH, 1 week) is reported as 99.13 area %, the Purity ([1]; 40° C./75% RH, 1 week) is reported as 99.13 area % and the Purity ([1]; Starting) is reported as 99.23 area %. The “T/C (relative tumor proliferation rate)” value ([2]; 7.5 mg/kg oral once a day, day 3) was 97.1%, the “T/C (relative tumor proliferation rate)” value ([2]; 7.5 mg/kg oral once a day, day 7) was 80.6% and the “T/C (relative tumor proliferation rate)” value ([2]; 7.5 mg/kg oral once a day, day 10) was 76.3%. The “T/C (relative tumor proliferation rate)” value ([2]; 7.5 mg/kg oral once a day, day 14) was 68.2%, the “T/C (relative tumor proliferation rate)” value ([2]; 7.5 mg/kg oral once a day, day 18) was 66.5% and the “T/C (relative tumor proliferation rate)” value ([2]; 7.5 mg/kg oral once a day, day 21) was 58.8%. The “T/C (relative tumor proliferation rate)” value ([2]; 15 mg/kg oral once a day, day 3) was 76.0%, the “T/C (relative tumor proliferation rate)” value ([2]; 15 mg/kg oral once a day, day 7) was 49.9% and the “T/C (relative tumor proliferation rate)” value ([2]; 15 mg/kg oral once a day, day 10) was 43.8%. The “T/C (relative tumor proliferation rate)” value ([2]; 15 mg/kg oral once a day, day 14) was 37.1%, the “T/C (relative tumor proliferation rate)” value ([2]; 15 mg/kg oral once a day, day 18) was 33.0% and the “T/C (relative tumor proliferation rate)” value ([2]; 15 mg/kg oral once a day, day 21) was 26.2%. For the same compound, the “S (dynamic solubility)” value ([3]; FaSSIF, 1 hour) was 0.028, the “pH of the filtrate” value ([3]; FaSSIF, 1 hour) was 5.8 and the “S (dynamic solubility)” value ([3]; FaSSIF, 2 hours) was 0.030. The “pH of the filtrate” value ([3]; FaSSIF, 2 hours) was 5.8, the “S (dynamic solubility)” value ([3]; FaSSIF, 4 hours) was 0.024 and the “pH of the filtrate” value ([3]; FaSSIF, 4 hours) was 5.8. The “S (dynamic solubility)” value ([3]; FaSSIF, 24 hours) was 0.080, the “pH of the filtrate” value ([3]; FaSSIF, 24 hours) was 5.3 and the “S (dynamic solubility)” value ([3]; FeSSIF, 1 hour) was 1.5. For the same compound, the “pH of the filtrate” value ([3]; FeSSIF, 1 hour) was 4.9, the “S (dynamic solubility)” value ([3]; FeSSIF, 2 hours) was 1.4 and the “pH of the filtrate” value ([3]; FeSSIF, 2 hours) was 5.0. For the same compound, the “S (dynamic solubility)” value ([3]; FeSSIF, 4 hours) was 1.3, the “pH of the filtrate” value ([3]; FeSSIF, 4 hours) was 5.0 and the “S (dynamic solubility)” value ([3]; FeSSIF, 24 hours) was 0.20. The “pH of the filtrate” value ([3]; FeSSIF, 24 hours) was 5.0, the “S (dynamic solubility)” value ([3]; H2O, 1 hour) was 2.5 and the “pH of the filtrate” value ([3]; H2O, 1 hour) was 4.5. For the same compound, the “S (dynamic solubility)” value ([3]; H2O, 2 hours) was 2.6, the “pH of the filtrate” value ([3]; H2O, 2 hours) was 4.5 and the “S (dynamic solubility)” value ([3]; H2O, 4 hours) was 2.4. The “pH of the filtrate” value ([3]; H2O, 4 hours) was 4.5, the “S (dynamic solubility)” value ([3]; H2O, 24 hours) was 2.5 and the “pH of the filtrate” value ([3]; H2O, 24 hours) was 4.4. The “S (dynamic solubility)” value ([3]; SGF, 1 hour) was 6.9, the “pH of the filtrate” value ([3]; SGF, 1 hour) was 2.7 and the “S (dynamic solubility)” value ([3]; SGF, 2 hours) was “completely dissolved”. For the same compound, the “S (dynamic solubility)” value ([3]; SGF, 4 hours) was “completely dissolved”, the “S (dynamic solubility)” value ([3]; SGF, 24 hours) was 6.4 and the “pH of the filtrate” value ([3]; SGF, 24 hours) was 2.7. The “Moisture adsorption (25° C./80% RH)” value ([4]; 25° C./80% RH) was 6.43% and the Hygroscopicity ([4]; 25° C.) was “Hygroscopic”.
